Values of other authors, collected in patent US20110196036A1, “USE OF BETAINE” (DANISCO A/S, priority 2008, published 2011).

Details: pure form; water and lower alcohols

In the case of `C[N+](C)(C)CC(=O)[O-]` [betaine, trimethylglycine], the solubility is given as “readily soluble in water and lower alcohols”.
